The CC50 is the concentration at which the toxic effect on the cells reaches its halfway point. One may read the EC50 as the midpoint of the concentration-response curve. A low value points to higher potency in that assay. In general, IC50 refers to the midpoint of a concentration-inhibition curve.

These results are taken from paper PMC6895199, “A new antiviral scaffold for human norovirus identified with computer-aided approaches on the viral polymerase” (Scientific Reports, 2019).

The nature of data set [1]: Cytotoxicity by the MTS method on uninfected cells. In kind it is cell-based. As to conditions: mouse, uninfected RAW 264.7 cells. The protocol:
Cytotoxicity: The cytotoxicity of the Compounds was evaluated by the MTS method, by exposing uninfected cells to the same concentrations of compounds for 3 days. The %cell viability was calculated as (ODtreated/ODCC) × 100, where ODCC is the OD of uninfected untreated cells and ODtreated are uninfected cells treated with compound. The CC50 was defined as the compound concentration that reduces the number of viable cells by 50%[34].
(Tetrazolium dyes change colour on reduction, which living cells bring about.)

The test system of a further data set is MNV. The experiment in a line: MNV CPE reduction assay (MTS) in RAW 264.7 cells. As to conditions: Norovirus, RAW264.7, in Mus musculus. In kind it is cell-based, mouse norovirus (MNV-1.CW1). The protocol: The newly prepared compounds 2–7 and 34–35 were evaluated for their antiviral effect against the genogroup V mouse norovirus (MNV) using the mouse macrophage cell line RAW264.7. This assay evaluates the ability of the compounds to protect infected cells from the virus-induced cytopathic effect, thus being suitable to identify inhibition of virus replication at every step of the virus life cycle, and representing a robust cellular assay available for the rapid evaluation of potential norovirus inhibitors. Compounds identified using MNV have shown effects against HuNoV in vitro and in vivo, as in the case of nucleoside RdRp inhibitor 2′-C-methylcytidine (2CMC)[34]–[36]. Unfortunately, despite not presenting the aqueous solubility issues we had previously encountered for 1[29], no significant antiviral effect could be observed in this assay for the new compounds up to the maximum concentration tested. The new structural modifications, despite retaining inhibition of the RdRp in an isolated enzyme activity assay and showing no cytotoxic effects at the test concentrations in the MNV antiviral assay (Supplementary Table S1), are correlated with a lack of antiviral activity. As these new structures present the same limitation of most non-nucleoside HuNoV polymerase inhibitors reported so far[22], we were prompted to apply a different computer-aided strategy to further modify the scaffold of 1, with the aim to achieve an antiviral effect in cellular systems. […]
Since the main scope of this work was to find new norovirus inhibitors which show antiviral effects against both the HuNoV RdRp and in norovirus-infected cells, priority was given to the evaluation of most of the new molecules for their antiviral activity against MNV in infected RAW cells. The nucleoside 2′-C-methylcytidine was used as positive control. The test compounds were evaluated at eight different concentrations (range 0.6–100 µM) and their ability to reduce the virus-induced cytopathic effect was assessed.
Cells and virus: MNV (virus strain MNV-1.CW1) was propagated in RAW 264.7 cells grown in DMEM (Life Technologies, Gent, Belgium) supplemented with 10% or 2% FBS, 2 mM L-glutamine, 20 mM HEPES, 0.075 g/L sodium bicarbonate, 1 mM sodium pyruvate, 100 U penicillin/mL and 100 µg/mL streptomycin at 37 °C in a humidified atmosphere of 5% CO2. The human norovirus GI.1 replicon harboring gastric tumor-1 cell line (HGT-NV) (kindly provided by Dr. Ian Goodfellow, University of Cambridge) was maintained in DMEM supplemented with 10% FBS, 2mM L-glutamine, 0.075 g/L sodium bicarbonate and 1.0 mg/ml of Geneticin (G418; Life Technologies), at 37 °C in a humidified atmosphere of 5% CO2[34].
Antiviral assay with MNV: The antiviral activity of the Compounds was determined using an MTS [3-(4,5-dimethylthiazol-2-yl)-5-(3-carboxymethoxyphenyl)-2-(4-sulfophenyl)-2H-tetrazolium]-based cytopathic effect (CPE) reduction assay. […] Then, a MTS-phenazinemethosulfate (MTS/PMS) stock solution [(2 mg/mL MTS (Promega, Leiden, The Netherlands) and 46 µg/mL PMS (Sigma–Aldrich, Bornem, Belgium) in PBS at pH 6–6.5)] was diluted 1/20 in MEM (Life Technologies, Gent, Belgium) and 75 µL were added to each well. After 2 h, the optical density (OD) was read at 498 nm. The %CPE reduction was calculated as [(ODtreated)MNV − ODVC]/[ODCC − ODVC] × 100, where ODCC represents the OD of the uninfected untreated cells, whereas ODVC and (ODtreated)MNV represent the OD of infected untreated cells and virus-infected cells treated with a compound concentration, respectively. The 50% effective concentration (EC50) was defined as the compound concentration that protected 50% of the cells from virus-induced CPE[34].

The subject of data set [2] is HuNoV (GII.4) RdRp. The experiment in a line: Counter-screen gel-shift assay of primed elongation activity (PE44-NoV template). The class given is biochemical, human norovirus. As to conditions: fixed concentration of 100 μM. As for the experimental part:
To further confirm RdRp inhibition and exclude any potential false positives from the first fluorescence RdRp assay, the eight molecules were then assessed using a gel-shift enzyme activity assay at a fixed concentration of 100 μM, following a procedure previously adopted by our research group.
Figure 5 A counter-screen gel-shift assay was used to confirm HuNoV (GII.4) RdRp inhibitory activity of compounds 2, 3, 34 and 35 (A), 4, 5, 6 (B) and 7 (C). The eight compounds were examined for inhibition of primed elongation activity. PE44-NoV RNA templates (32 nucleotides) were extended (44 nucleotides) by the RdRp in the absence of any test compounds (0.5% DMSO [vol/vol] negative control) or with test compounds at a fixed concentration of 100 μM. […] Full-length gels are presented in Supplementary Fig. S3.
(§1) Fluorescent RdRp activity assays were carried out as previously described[12],[29]. Briefly, RdRp activity was quantified by monitoring the formation of double-stranded RNA (dsRNA) from a single stranded homopolymeric template, poly(C) (Sigma Aldrich), using the fluorescent dye PicoGreen (Life Technologies, Carlsbad, CA, USA). RdRp assays were performed in 384-well plates, and each reaction mixture contained 400 ng enzyme, 45 μM GTP, 10 ng/μL poly(C) RNA, 2.5 mM MnCl2, 5 mM dithiothreitol, (DTT), 0.01% bovine serum albumin (BSA), and 0.005% Tween 20 in 20 mM Tris-HCl, pH 7.5, with a final reaction volume of 25 μL. The PPNDS and compound 1 were used as a positive controls. RdRps were incubated for 10 mins at 30 °C in the presence of the test compounds or the compound vehicle DMSO (0.5% vol/vol) before addition into the reaction mixture, which was then allowed to run 15 min at 30 °C then terminated with 10 mM EDTA, followed by PicoGreen staining and dsRNA quantitation. GraphPad Prism V6.05 (La Jolla, CA, USA) was used to plot the IC50 values. A secondary gel-based polymerase activity assay was used as a counter-screen as described below, to exclude the possibility of RdRp activity enhancement. Primed elongation activity was examined in a gel-based assay as previously described[12],[29] using the RNA template (PE44-NoV). Gels were imaged using BioRad (Hercules, CA, U.SA) Geldoc Universal Hood II, running BioRad Image Lab software, V4.1, build 16.
A general note: The purpose of a counterscreen is to sort out artefacts and off-target activity.

In data set [3] the target is HuNoV (GII.4) RdRp (Norovirus Hu/GII.4/Sydney/NSW0514/2012/AU, UniProt K4L8Z7). Description: Quantitative fluorescent RdRp activity assay (PicoGreen, poly(C) template). The class given is biochemical, human norovirus Sydney 2012. As to conditions: for IC50: HuNoV (GII.4) RdRp activity, six concentrations 0.1–100 µM, mean ± SD. As for the experimental part:
The newly synthesised compounds, including the carboxylate ester derivatives 34–35 and 7 from the Core Hopping approach, were evaluated for their enzymatic inhibition of human norovirus Sydney 2012 (HuNoV (GII.4)) RdRp activity in vitro, using a quantitative fluorescent assay. Compounds were tested at six different concentrations (concentration range examined: 0.1–100 µM) and compared to the relative activity of mock treated samples containing the vehicle only (0.5% DMSO [vol/vol]). PPNDS [Pyridoxal-5′-phosphate-6-(2′-naphthylazo-6′-nitro-4′,8′-disulfonate) tetrasodium salt], a previously reported potent inhibitor of NoV RdRp activity, and 1 were used as positive controls. Dose-dependent inhibitory response curves were used to establish IC50 values for the eight test compounds, as reported in Table 1 (see also Supplementary Fig. S1).
The newly prepared compounds 48–60 were initially evaluated against norovirus Sydney 2012 RdRp activity in vitro using a quantitative fluorescent assay. Compounds were tested at a fixed concentration of 20 µM and compared to the relative activity of mock treated samples. PPNDS and 1 were used as positive controls. […] These two rings are structural features present in 1 and in one of its derivatives we have previously reported. […] From these observations, the thiophene ring appears not to influence inhibitory activity. Derivatives in which the central core of 48 has been used to link the two terminal hydrophobic rings of 1 or of its derivatives we have previously reported[25] (55, 57, 58) appear to retain the RdRp inhibitory activity found for 48 (~20% at 20 µM). A similar effect is obtained when a sulfonyl group, as in our hit 1, is used to link ring 2, regardless if it is a thiazole (59) or an unsubstituted phenyl ring (60), to the rest of the molecule. […] Overall, even if showing a reduced biochemical activity in comparison with 1, some of the new derivatives can be considered as modest HuNoV RdRp inhibitors at 20 µM.
as §1

Data set [4] can be described thus: Crystal formation seen in the cell-based assays. As to conditions: MNV CPE reduction assay, Supplementary Table S1. The class given is physicochemical.
Where [5] appears, read: Supplementary Table S1, at least two independent experiments.

Regarding `O=C(Cc1cccc(-c2ccccc2)c1)Nc1ccc(S(=O)(=O)Nc2ccccc2)cc1` [Compound 7, 2-([1,1′-biphenyl]-3-yl)-N-(4-(N-phenylsulfamoyl)phenyl)acetamide], in data set [1] (setting [5]), the midpoint of cytotoxicity, the CC50 at 3 days, lay at 20 ± 21 µM. This molecule also came in with a concentration for a half-maximal effect (EC50) in the data set on MNV (setting [5]) greater than 12.5 µM. Moreover, in the data set with HuNoV (GII.4) RdRp [2], the “inhibition of primed elongation activity (gel-shift)” value (shortened to “inhibition … (gel-shift)”) is “did not demonstrate inhibition”. The inhibition at 100 µM at HuNoV (GII.4) RdRp [3] (100 µM, read-out: inhibition of RdRp activity at the maximum concentration tested) worked out at 20%.
`CCOC(=O)c1ccc(N2NC(=O)/C(=C\c3ccc(-c4ccc(S(=O)(=O)Nc5ccccc5)cc4)o3)C2=O)cc1` [Compound 34, Ethyl(E)-4-(3,5-dioxo-4-((5-(4-(N-phenylsulfamoyl)phenyl)furan-2-yl)methylene)pyrazolidin-1-yl)benzoate]: in data set [1] (setting [5]), the CC50 at 3 days is greater than 100 µM. For the same molecule, the “crystals noted in the assay” value in data set [4] is on record as “crystals”. In the data set on MNV (setting [5]), this molecule displayed an EC50 greater than 100 µM. For the same molecule, the IC50 on HuNoV (GII.4) RdRp [3] turned out to be 13.5 ± 5.8 µM.
In the case of `Cc1nc(N=Nc2cc(S(=O)(=O)[O-])c3cc([N+](=O)[O-])cc(S(=O)(=O)[O-])c3c2)c(COP(=O)([O-])[O-])c(C=O)c1O.[Na+].[Na+].[Na+].[Na+]` [PPNDS, Pyridoxal-5′-phosphate-6-(2′-naphthylazo-6′-nitro-4′,8′-disulfonate) tetrasodium salt, reference compound], in the data set on HuNoV (GII.4) RdRp [2], the “inhibition … (gel-shift)” value is given as “complete inhibition”. On HuNoV (GII.4) RdRp [3], the concentration for half-maximal inhibition (IC50) was 1.5 ± 0.25 µM.
In the case of `O=C(NC(=S)Nc1ccc(N2CCN(C(=O)c3ccco3)CC2)cc1)c1sc2ccccc2c1Cl` [Compound 53, 3-Chloro-N-((4-(4-(furan-2-carbonyl)piperazin-1-yl)phenyl)carbamothioyl)benzo[b]thiophene-2-carboxamide], in data set [1] (Table 2, at least three independent experiments), the midpoint of cytotoxicity, the CC50 at 3 days, lay at 9.4 ± 2.3 µM. Moreover, the EC50 in the data set with MNV (Table 2, RAW 264.7, range 0.6–100 µM, at least three independent experiments) is greater than 100 µM. In the data set with HuNoV (GII.4) RdRp [2], the “inhibition … (gel-shift)” value is given as “significant inhibition”. In addition, at HuNoV (GII.4) RdRp [3] (20 µM, read-out: inhibition of HuNoV RdRp activity at fixed concentration), the inhibition at 20 µM was no more than 60%.
